Patent US20050096282A1, “Adeno-associated virus-delivered ribozyme compositions and methods for the treatment of retinal diseases” (priority 1997, published 2005)
Entries after “also recorded” stand apart in the source; their conditions may differ.

Legend:
[1] = tested on: HREC; assay: ERK/MAPK activation in HREC, Western blot; type: cell-based, human; details: for ERK activation by agonist / basal ERK activation: HREC; for ERK activation by agonist: agonist alone; for basal ERK activation: CGS 1-10 μM, H-89 30 min pretreatment; for effect on NECA-stimulated ERK activation: HREC pretreated with antagonist or inhibitor, then NECA
Experimental: HREC were serum-starved for 24 hr and pre-treated for 20 min with 1 U/mL adenosine deaminase prior to adding NECA. Activated ERK/MAPK was visualized on Western blots by enhanced chemiluminescence using EC10 monoclonal antibody;
HRECs were serum-starved for 24 hr and pre-treated with adenosine deaminase (ADA, 1 U/mL) for 20 min, incubated with the antagonists in the presence of ADA for 10 min. NECA (1 nM-10 μM, 10 min) was used to activate ERK.
In order to determine the intracellular signaling pathways activated by NECA that regulate ERK activity, we pretreated cells for 30 min with the ERK/MPAK kinase (MEK) inhibitor PD98059 or the PKA inhibitor H-89 and stimulated with NECA for 5 min.
Cells were pre-treated with both antagonists for 10 min and stimulated with increasing concentrations of NECA.

[2] = tested on: HREC; assay: VEGF mRNA in HREC after adenosine receptor agonists and antagonists; type: cell-based, human; details: agonists 10 μm, with NECA: CPX 20 nM, SCH 60 nM, XAC 10 μm, * p < 0.005 vs untreated
[3] = tested on: HREC; assay: VEGF protein in HREC after adenosine receptor agonists and antagonists; type: cell-based, human; details: agonists 10 μm, with NECA: CPX 20 nM, SCH 60 nM, XAC 10 μm, * p < 0.005 vs untreated
[4] = tested on: HREC; assay: cAMP content of intact HRECs; type: cell-based, human
Source text: The cAMP content of intact HRECs following treatment with adenosine receptor agonists and antagonists was next examined. […] The effect of selective A1 and A2A adenosine receptor antagonists on NECA-induced accumulation of cAMP was also examined.

[5] = tested on: HREC; assay: HREC proliferation, cell count; type: cell-based, human; details: for Proliferation Cell Count: HREC, agonists 10 μm, with NECA: CPX 20 nM, SCH 60 nM, XAC, Enprofylline, JW V108 10 μm, * p < 0.005 vs untreated; for increase in HREC number: agonist alone, 48 hr
Experimental: (§1) The subtype of adenosine receptor (A2B) that mediates the proliferative effect of adenosine on HREC was determined by the following studies. […] In contrast, neither the A2A adenosine receptor agonist CGS21680 (2-p-(2-carboxyethyl) phenethylamino-5′-N-ethylcarboxamidoadenosine) at concentrations ranging from 10 nM to 10 μM, nor the A1 adenosine receptor agonist CPA (N^6-cyclopentyladenosine) at concentrations ranging from 10 nM to 10 μM increased BrdU incorporation by HRECs. […] In contrast, neither the selective A1 adenosine receptor antagonist CPX (8-cyclopentyl-1,3-dipropylxanthine) at 20 nM, nor the selective A2A adenosine receptor antagonist SCH58261 (5-amino-7-(2-phenylethyl)-2-(2-furyl)-pyrazolo(4,3-E)-1,2,4-trizolo(1,5-c) pyrimidine) at 60 nM attenuated the stimulatory effect of NECA on BrdU incorporation by HRECs. These findings indicate that the proliferative effects of NECA are mediated by the A2B adenosine receptor in HREC in culture (Table 3).
The data for cell counts were consistent with those for BrdU incorporation. […] These compounds, like XAC, blocked the proliferative effects of NECA as measured by cell counts, supporting that the proliferative effects of NECA on HREC are mediated by the adenosine A2B receptor (Table 3).

[6] = tested on: HREC; assay: BrdU incorporation (DNA synthesis) in HRECs; type: cell-based, human; details: for Proliferation BrdU Incorporation: HREC, agonists 10 μm, with NECA: CPX 20 nM, SCH 60 nM, XAC 10 μm, * p < 0.005 vs untreated
Experimental: as §1

[7] = tested on: HREC; assay: HREC chemotaxis; type: cell-based, human
Source text: The role of the A2B receptor was further characterized by examining the effects of the A2B antagonists JW V108 and Enprofylline on HREC chemotaxis, capillary tube formation and signal transduction pathways following stimulation with the adenosine analogue NECA.

[8] = tested on: oxygen-induced retinal neovascularization; assay: Oxygen-induced retinal neovascularization in the neonatal mouse; type: in vivo; details: daily IP 30 mg/Kg body weight; vs uninjected control
Source text: The potential efficacy of administering adenosine receptor antagonists to reduce retinal neovascularization brought on by ischemic insult was examined. In the neonatal mouse model of oxygen-induced retinopathy, 7-day-old mice are placed with their nursing dams in a 75% oxygen atmosphere for 5 days. Upon return to normal air, these mice develop retinal neovascularization, with peak development occurring 5 days after their return to normoxia. During this time, the animals receive by daily intaperitoneal injection a pharmacologically relevant concentration of adenosine receptor antagonist or vehicle (0.15% vol./vol. DMSO in normal saline) alone. Exemplary antagonists tested include XAC and 3-n-propylxanthine (Enprofylline), and JW V108, both at a concentration of 30 mg/Kg of body weight. […]
Individuals masked to the identity of treatment counted all cell nuclei above the inner limiting membrane for all 20 sections from each eye. […] The efficacy of treatment with a particular antagonist was then calculated as the fraction of total nuclei in antagonist or vehicle treatment over total nuclei in uninjected control. […] Whole retinas from these eyes were then flat-mounted for qualitative assessment of retinal neovascularization by fluorescence microscopy.

[9] = tested on: HREC; assay: CREB phosphorylation at Ser133 in HREC, western blot; type: cell-based, human; details: HREC pretreated
Source text: Phosphorylation of cAMP response element binding protein (CREB) at Ser^133 was examined following NECA stimulation in order to determine whether activation of cAMP pathways by NECA occurred independently of ERK activation. Cells were pretreated with PD98059 or H-89 and assayed for active CREB by western blot.

[10] = tested on: IGF-I (insulin-like growth factor-1) receptor mRNA; assay: Ribozyme kinetic analysis, IGF1; type: biochemical; details: target GUACGUCUUCCAU
Source text: (§2) The chief characteristic of diabetic retinopathy is retinal neovascularization-the pathologic spread of blood vessels in the eye. Unique ribozymes have been developed which target the mRNAs that encode various proteins involved in this process. These include ribozymes directed at the wild-type mRNA for the adenosine A2b receptor, for IGF-I (insulin-like growth factor-1) receptor, for inducible nitric oxide synthase (iNOS), and for several integrins implicated in retinal neovascularization (e.g., alpha1, alpha3, alphaV). Also shown in Table 7 are the analyses of P347S ribozymes, that are specific for another mutant form of the rod opsin polypeptide.

[11] = tested on: P347S rod opsin mRNA target UGGCCUCGGCCUA; assay: Ribozyme kinetic analysis, P347S human; type: biochemical; details: mean
Source text: as §2

CCNC(=O)[C@H]1O[C@@H](n2cnc3c(N)nc(NCCc4ccc(CCC(=O)O)cc4)nc32)[C@H](O)[C@@H]1O [CGS21680, 2-p-(2-carboxyethyl) phenethylamino-5′-N-ethylcarboxamidoadenosine] was tested, and the “ERK activation by agonist” value [1] was “did not activate ERK”, the “basal ERK activation” value [1] was “reduced the basal ERK levels” and the “VEGF MRNA” value [2] was 0.8 ± 0.37 fold change vs. untreated. For the same molecule, the “VEGF Protein” value [3] was 1.3 ± 0.20 fold change vs. untreated, the “CAMP Content” value ([4]; HREC, agonists 10 μm, with NECA: CPX 20 nM, SCH 60 nM, XAC 10 μm, * p < 0.005 vs untreated) was 1.1 ± 1.02 fold change vs. untreated and the “effect on cAMP content of HREC” value ([4]; agonist alone, concentrations up to 100 μM) was “no significant effect”. For the same molecule, the “Proliferation Cell Count” value [5] was 1.1 ± 0.03 fold change vs. untreated, the “increase in HREC number” value [5] was “neither CGS21680 nor CPA caused an increase in cell number” and the “Proliferation BrdU Incorporation” value [6] was 1.0 ± 0.08 fold change vs. untreated.
In the case of OC[C@H]1O[C@@H](n2cnc3c(NC4CCCC4)ncnc32)[C@H](O)[C@@H]1O [CPA, N^6-cyclopentyladenosine], the “ERK activation by agonist” value [1] is reported as “capable of stimulating ERK”, the “VEGF MRNA” value [2] is reported as 1.1 ± 0.22 fold change vs. untreated and the “VEGF Protein” value [3] is reported as 1.1 ± 0.27 fold change vs. untreated. For the same molecule, the “Proliferation Cell Count” value [5] was 0.9 ± 0.04 fold change vs. untreated, the “increase in HREC number” value [5] was “neither CGS21680 nor CPA caused an increase in cell number” and the “Proliferation BrdU Incorporation” value [6] was 0.8 ± 0.06 fold change vs. untreated.
With CCCn1c(=O)[nH]c(=O)c2[nH]cnc21 [Enprofylline, 3-n-propylxanthine] the “effect on NECA-stimulated ERK activation” value [1] was “completely abolished ERK activation”, the “inhibition of NECA-induced HREC chemotaxis” value [7] was “inhibited” and the “inhibition of oxygen-induced retinal neovascularization” value [8] was 70%.
In the case of CCNC(=O)[C@H]1O[C@@H](n2cnc3c(N)ncnc32)[C@H](O)[C@@H]1O [NECA], the “ERK activation by agonist” value [1] is reported as “dose-dependent increase in ERK activation; also recorded: transient activation of ERK”, the EC50 ([4]; intact HRECs, read-out: EC50 for increase of cAMP content of HRECs) is reported as 24 µM and the “HREC chemotaxis induced by agonist” value [7] is reported as “induced HREC chemotaxis in a concentration-dependent manner”. For the same molecule, the “increase in HREC number” value [5] was “concentration-dependent increase in HREC number” and the “increase of BrdU incorporation (DNA synthesis) by HRECs” value ([6]; agonist alone, 48 hr, CGS21680 and CPA 10 nM to 10 μM) was “concentration-dependent increase of DNA synthesis”.
COc1cccc(-c2cc(=O)c3ccccc3o2)c1N [PD98059] was tested, and the “effect on NECA-stimulated ERK activation” value [1] was “abolished ERK activation” and the “CREB activation (phosphorylation) following NECA stimulation” value (“CREB activation” for short) [9] was “did not alter CREB activation”.
O=S(=O)(NCCNC/C=C/c1ccc(Br)cc1)c1cccc2cnccc12 [Ribozyme H-89] was tested, and the “effect on NECA-stimulated ERK activation” value [1] was “did not block”, the “basal ERK activation” value [1] was “increased basal ERK activation” and the “CREB activation” value [9] was “blocked CREB phosphorylation”.
CCCn1c(=O)c2[nH]c(-c3ccc(OCC(=O)NCCN)cc3)nc2n(CCC)c1=O [XAC, xanthine amine congener] was tested, and the “effect on NECA-stimulated ERK activation” value [1] was “decreased ERK activation by high concentrations of NECA”, the “CREB activation” value [9] was “blocked CREB phosphorylation” and the “inhibition of NECA-induced increase in cAMP content in HRECs” value ([4]; NECA 10 μM) was “completely blocked”. For the same molecule, the “inhibition of increase in cell number induced by NECA” value ([5]; 10 μM NECA) was “significantly inhibited”, the “attenuation of NECA-stimulated BrdU incorporation by HRECs” value ([6]; XAC 10 μM, CPX 20 nM, SCH58261 60 nM) was “completely prevented” and the “inhibition of oxygen-induced retinal neovascularization” value [8] was 54%.
“IGF1 Rz 2: ribozyme GGAACUGAUGAGCCGUUCGCGGCGAAACGUAC (SEQ ID NO:101), IGF-I receptor mRNA (RNA, backbone not given here)” gave a Km [10] of 9.76 µM, a Vmax [10] of 27.6 nM/min and a kcat [10] of 18.4 min − 1.
With “P347S human: ribozyme UAGGCCCUGAUGAGCCGCUUCGGCGGCAAAGGCCA (SEQ ID NO:103), P347S mutant rod opsin mRNA (listed as RNA, chemistry not given here)” the Km [11] was 41.9 µM, the Vmax [11] was 0.00135 nM/min and the kcat [11] was 1.10E−04 min − 1.
